Data published in patent publication US20100075370A1, “METHOD FOR DETERMINATION OF CELL VIABILITY BY USING FLOW CYTOMETRY WITH FIXED VOLUME ACQUISITION” (TUMORTEC GMBH, priority 2006, published 2010).

Test system: Peripheral blood mononuclear cells (pBMC) from a patient with chronic lymphatic leukaemia
Test: Cytotoxicity of fludarabine phosphate on mononuclear cells, flow cytometry with fixed volume acquisition (PI exclusion)
Type: cell-based, human
Conditions: 96 h; for relative cell survival: 100% = without fludarabine phosphate
Method: The peripheral blood mononuclear cells (pBMC) used in the examples were isolated from peripheral blood samples as described before (Staib, P. et al., Br. J. Haematol., 128(6):783-91 (2005)). The necessary peripheral blood (PB) samples from adult patients diagnosed with chronic lymphatic leukaemia (CLL) were collected into heparin during routine diagnosis prior to administration of chemotherapy.
Plate precoating with different amounts of fludarabine phosphate: 50 μl/well of an aqueous fludarabine phosphate solution were given in a 96-well microtiter plate (Greiner BioOne, Frickenhausen, Germany). Four different fludarabine phosphate concentrations (25; 8.33; 2.78; 0.93 μg/ml) were used. The control wells were kept empty. The plates were placed into an exsiccator and dried under vacuum for 8 h.
Peripheral blood mononuclear cells (pBMC) from a patient with chronic lymphatic leukaemia were isolated from the PB samples as described before (Staib, P. et al., Br. J. Haematol., 128(6):783-91 (2005)), resuspended in RPMI 1640 medium (Biochrom, Berlin, Germany) containing 20 vol. % fetal calf serum (FCS; Biochrom, Berlin, Germany) and added into the precoated 96-well plate with a final cell concentration of 10,000 cells/well and a volume of 100 μl. The plates were then agitated for 15 min in order to solubilize the dried fludarabine phosphate. Subsequently, the plates were incubated for 96 h (37° C., 5% CO2, humidified atmosphere). Thereafter, 50 μl of an 11 μM propidium iodide (PI)-solution in 0.9% aqueous NaCl solution (NaCl 0.9%) (Invitrogen, Leiden, Netherlands) were added and incubated for 15 min at room temperature. PI is a standard flow cytometric viability probe and is used to distinguish viable from nonviable cells. Viable cells with intact membranes exclude PI, whereas the membranes of dead and damaged cells are permeable to PI. PI only stains cells with compromised cell membrane, whilst live cells which have intact membranes are not stained by PI.
The plates were then analyzed using a FACSArray (BD Biosciences, San Jose, Calif., USA) flow cytometer. The following instrument settings were used:
2.0 μl/s sample flow rate
20 μl sample volume (n. b.: this is no absolute amount, but the set value of the instrument. Thus, the actual volume aspirated and analyzed by the instrument may be higher or lower than 20 μl: however, this actual volume is invariant from sample to sample during the analysis.)
500,000 maximum events (i.e. the number of maximum events exceeds the actual cell number in the sample considerably)
An identical fixed volume (preset sample volume on instrument: 20 μl) was aspirated from each sample and the absolute amount of living cells was counted. Living cells were defined as events with cellular light scatter characteristics and being negative for PI.
After switch-on and before analyzing a new kind of sample the flow cytometer must be re-calibrated. […] In addition cut-off values can be defined. Signals below this cut-off will be excluded from data acquisition. All cells with signal intensities above the cut-off are counted. The rectangle shown in FIG. 1 defines an area of signal intensities (FSC signal and PI signal) that is suitable for counting viable cells. All cells within this rectangle are counted.

[1] = 12.50 μg/ml final concentration

`Nc1nc(F)nc2c1ncn2[C@@H]1O[C@H](COP(=O)(O)O)[C@@H](O)[C@@H]1O` [Fludarabine phosphate, 2-Fluoro-9-(5-O-phosphono-β-D-arabinofuranosyl)-9H-purin-6-amine] was tested, and the “Total living cells counted in the fixed volume” value (“Total living cells counted” below) (0.46 μg/ml final concentration) was 1,725, the relative cell survival (0.46 μg/ml final concentration) was 41% and the “Total living cells counted” value (1.39 μg/ml final concentration) was 758. The relative cell survival (1.39 μg/ml final concentration) was 18%, the “Total living cells counted” value (4.17 μg/ml final concentration) was 347 and the relative cell survival (4.17 μg/ml final concentration) was 8%. The “Total living cells counted” value [1] was 186, the relative cell survival [1] was 4% and the relative cell survival (12.50 μg/ml final concentration, listed as fludarabine phosphate) was 4%.
